According to patent US9637453B2, “3-spirocyclic-6-hydroxamic acid tetralins as HDAC inhibitors” (Forma Therapeutics, Inc., priority 2015, dated 2017):
Each block holds one molecule with its values, some of them ahead of it.

Legend:
[1] = target: T1, Full length human recombinant HDAC11 (Homo sapiens, UniProt Q96DB2); assay: In vitro histone deacetylase assay, enzymatic HDAC11 (electrophoretic mobility shift assay); assay type: biochemical; conditions: 10 nM HDAC11; 2 μM peptide substrate FAM-RHKK(tri-fluor-Ac)—NH2; 25° C.; 12 concentrations; read-out: HDAC11 Activity Range (IC50)
T1 construct: Full length human recombinant HDAC6 and HDAC11 proteins were expressed in baculoviral system
T1 sequence (Q96DB2 1-347): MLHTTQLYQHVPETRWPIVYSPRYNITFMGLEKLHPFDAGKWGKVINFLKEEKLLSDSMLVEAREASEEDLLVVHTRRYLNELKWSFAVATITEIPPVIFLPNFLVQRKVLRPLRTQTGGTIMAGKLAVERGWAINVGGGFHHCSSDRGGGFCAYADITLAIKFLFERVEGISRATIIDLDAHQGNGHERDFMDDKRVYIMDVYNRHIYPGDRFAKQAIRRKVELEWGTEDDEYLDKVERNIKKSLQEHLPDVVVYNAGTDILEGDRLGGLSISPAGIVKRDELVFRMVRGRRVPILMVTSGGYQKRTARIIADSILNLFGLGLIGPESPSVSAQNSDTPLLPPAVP
Method: (§1) The enzymatic HDAC6 and HDAC11 assays were performed using electrophoretic mobility shift assay. Full length human recombinant HDAC6 and HDAC11 proteins were expressed in baculoviral system and purified by affinity chromatography. The enzymatic reactions were assembled in 384 well plates in a total volume of 25 μL in a reaction buffer composing: 100 mM HEPES, pH 7.5, 25 mM KCl, 0.1% bovine serum albumin, 0.01% Triton X-100, 1% DMSO (from compounds) 2 μM of the fluorescently labeled peptide substrate and enzyme. The enzymes were added at a final concentration of 1 nM for HDAC6, and 10 nM for HDAC11. The peptide substrate FAM-RHKK(Ac)—NH2 was used for HDAC6, and FAM-RHKK(tri-fluor-Ac)—NH2 for HDAC11. The compounds were tested at 12 concentrations spaced by 3× dilution intervals. Negative control samples (0%-inhibition in the absence of inhibitor) and positive control samples (100%-inhibition) were assembled in replicates of four in each assay plate. The reactions were incubated at 25° C. and quenched by the addition of 45 μL of termination buffer (100 mM HEPES, pH 7.5, 0.01% Triton X-100, 0.05% SDS).
(§2) The terminated assay plates were analyzed on LabChip® 3000 microfluidic electrophoresis instrument (Perkin Elmer/Caliper Life Sciences). The fluorescence intensity of the electrophoretically separated de-acetylated product and substrate peptide was measured. Activity in each sample was determined as the product to sum ratio (PSR): P/(S+P), where P is the peak height of the product peptide and S is the peak height of the substrate peptide. Percent inhibition (Pinh) is determined using following equation:
(§3) Pinh=(PSR0%−PSRinh)/(PSR0%−PSR100%)*100, where PSRinh is the product sum ratio in the presence of inhibitor, PSR0% is the average product sum ration in the absence of inhibitor and PSR100% is the average product sum ratio in 100%-inhibition control samples. The IC50 values of inhibitors were determined by fitting the %-inhibition curves with 4 parameter dose-response model using XLfit 4 software.
(§4) As set forth in Table-26 and Table-27, below, IC5o values are defined as follows: IC50≦0.1 μM (+++); IC50>0.1 μM and ≦0.5 μM (++); IC50>0.5 μM (+).

[2] = target: T2, Full length human recombinant HDAC6 (Homo sapiens, UniProt Q9UBN7); assay: In vitro histone deacetylase assay, enzymatic HDAC6 (electrophoretic mobility shift assay); assay type: biochemical; conditions: 1 nM HDAC6; 2 μM peptide substrate FAM-RHKK(Ac)—NH2; 25° C.; 12 concentrations; read-out: HDAC6 Activity Range (IC50)
T2 construct: Full length human recombinant HDAC6 and HDAC11 proteins were expressed in baculoviral system
T2 sequence (Q9UBN7 1-1215): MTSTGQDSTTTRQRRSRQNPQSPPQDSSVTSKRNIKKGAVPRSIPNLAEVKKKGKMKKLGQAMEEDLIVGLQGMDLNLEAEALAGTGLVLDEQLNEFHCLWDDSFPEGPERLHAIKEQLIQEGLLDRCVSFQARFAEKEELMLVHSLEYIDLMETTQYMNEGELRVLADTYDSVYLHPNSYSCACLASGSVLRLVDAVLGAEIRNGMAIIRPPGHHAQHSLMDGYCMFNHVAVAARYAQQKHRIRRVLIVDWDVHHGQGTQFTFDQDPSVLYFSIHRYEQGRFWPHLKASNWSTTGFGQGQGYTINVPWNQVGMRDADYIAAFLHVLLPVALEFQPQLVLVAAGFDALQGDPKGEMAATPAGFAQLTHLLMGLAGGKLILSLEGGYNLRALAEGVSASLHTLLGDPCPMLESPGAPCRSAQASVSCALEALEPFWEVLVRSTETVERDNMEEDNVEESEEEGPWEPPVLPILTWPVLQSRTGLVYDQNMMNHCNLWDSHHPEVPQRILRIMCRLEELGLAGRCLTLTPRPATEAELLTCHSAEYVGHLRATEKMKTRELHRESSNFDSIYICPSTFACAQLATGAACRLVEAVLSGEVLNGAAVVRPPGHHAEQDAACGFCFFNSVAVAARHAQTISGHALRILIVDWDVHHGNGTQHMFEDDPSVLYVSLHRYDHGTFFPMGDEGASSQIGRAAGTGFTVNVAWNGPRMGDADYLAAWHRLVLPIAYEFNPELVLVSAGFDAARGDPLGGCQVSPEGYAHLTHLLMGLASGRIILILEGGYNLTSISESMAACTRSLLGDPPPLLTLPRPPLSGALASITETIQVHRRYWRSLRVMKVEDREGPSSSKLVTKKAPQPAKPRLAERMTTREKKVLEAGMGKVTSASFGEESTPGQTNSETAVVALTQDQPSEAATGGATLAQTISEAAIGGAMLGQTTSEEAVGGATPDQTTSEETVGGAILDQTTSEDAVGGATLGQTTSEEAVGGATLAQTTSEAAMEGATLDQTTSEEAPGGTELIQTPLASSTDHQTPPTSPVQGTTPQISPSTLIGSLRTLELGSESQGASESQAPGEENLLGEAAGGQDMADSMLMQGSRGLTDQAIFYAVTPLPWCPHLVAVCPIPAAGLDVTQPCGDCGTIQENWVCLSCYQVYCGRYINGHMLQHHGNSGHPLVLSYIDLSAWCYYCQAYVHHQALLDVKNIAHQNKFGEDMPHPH
Method: as §1, §2, §3, §4

IC50 [1]: 100 to 500 nM | IC50 [2]: ≤ 100 nM
SMILES: COc1ccc(CCN2CCC3(CCc4ccc(C(=O)NO)cc4C3)C2=O)cc1 (centres unmarked) [Compound I-20, N-hydroxy-1′-(4-methoxyphenethyl)-2′-oxo-3,4-dihydro-1H-spiro[naphthalene-2,3′-pyrrolidine]-7-carboxamide]

IC50 [1]: ≤ 100 nM | IC50 [2]: ≤ 100 nM
SMILES: O=C(NO)c1ccc2c(c1)CC1(CC2)CCN(Cc2ccc(Cl)c(Cl)c2)C1=O (centres unmarked) [Compound I-21, 1′-(3,4-dichlorobenzyl)-N-hydroxy-2′-oxo-3,4-dihydro-1H-spiro[naphthalene-2,3′-pyrrolidine]-7-carboxamide]

IC50 [1]: > 500 nM | IC50 [2]: ≤ 100 nM
SMILES: O=C(NO)c1ccc2c(c1)CC1(CC2)CCN(Cc2ccncc2)C1=O (centres unmarked) [Compound I-22, N-hydroxy-2′-oxo-1′-(pyridin-4-ylmethyl)-3,4-dihydro-1H-spiro[naphthalene-2,3′-pyrrolidine]-7-carboxamide]

IC50 [1]: > 500 nM | IC50 [2]: ≤ 100 nM
SMILES: CN(C)CCCN1CCC2(CCc3ccc(C(=O)NO)cc3C2)C1=O (centres unmarked) [Compound I-25, 1′-(3-(dimethylamino)propyl)-N-hydroxy-2′-oxo-3,4-dihydro-1H-spiro[naphthalene-2,3′-pyrrolidine]-7-carboxamide]

IC50 [1]: ≤ 100 nM | IC50 [2]: ≤ 100 nM
SMILES: O=C(NO)c1ccc2c(c1)CC1(CC2)CCN(Cc2ccc(Cl)c(C(F)(F)F)c2)C1=O (centres unmarked) [Compound I-27, 1′-(4-chloro-3-(trifluoromethyl)benzyl)-N-hydroxy-2′-oxo-3,4-dihydro-1H-spiro[naphthalene-2,3′-pyrrolidine]-7-carboxamide]

IC50 [1]: > 500 nM | IC50 [2]: ≤ 100 nM
SMILES: O=C(NO)c1ccc2c(c1)CC1(CC2)CCN(c2ccncc2)C1=O (centres unmarked) [Compound I-30, N-hydroxy-2′-oxo-1′-(pyridin-4-yl)-3,4-dihydro-1H-spiro[naphthalene-2,3′-pyrrolidine]-7-carboxamide]

IC50 [1]: > 500 nM | IC50 [2]: ≤ 100 nM
SMILES: COCCn1c(N2CC[C@@]3(CCc4ccc(C(=O)NO)cc4C3)C2=O)nc2ccccc21 [Compound I-33, (S)—N-hydroxy-1′-(1-(2-methoxyethyl)-1H-benzo[d]imidazol-2-yl)-2′-oxo-3,4-dihydro-1H-spiro[naphthalene-2,3′-pyrrolidine]-7-carboxamide]

IC50 [1]: ≤ 100 nM | IC50 [2]: ≤ 100 nM
SMILES: COCCn1c(N2CC[C@]3(CCc4ccc(C(=O)NO)cc4C3)C2=O)nc2ccccc21 [Compound I-34, (R)—N-hydroxy-1′-(1-(2-methoxyethyl)-1H-benzo[d]imidazol-2-yl)-2′-oxo-3,4-dihydro-1H-spiro[naphthalene-2,3′-pyrrolidine]-7-carboxamide]

IC50 [1]: > 500 nM | IC50 [2]: ≤ 100 nM
SMILES: O=C(NO)c1ccc2c(c1)C[C@@]1(CC2)CCN(Cc2ccccc2)C1=O [Compound I-35, (S)-1′-benzyl-N-hydroxy-2′-oxo-3,4-dihydro-1H-spiro[naphthalene-2,3′-pyrrolidine]-7-carboxamide]

IC50 [1]: 100 to 500 nM | IC50 [2]: ≤ 100 nM
SMILES: O=C(NO)c1ccc2c(c1)C[C@]1(CC2)CCN(Cc2ccccc2)C1=O [Compound I-36, (R)-1′-benzyl-N-hydroxy-2′-oxo-3,4-dihydro-1H-spiro[naphthalene-2,3′-pyrrolidine]-7-carboxamide]

The remaining lines, values behind:

SMILES: CN1CC[C@@]2(CCc3ccc(C(=O)NO)cc3C2)C1 [Compound I-18, (S)—N-hydroxy-1′-methyl-3,4-dihydro-1H-spiro[naphthalene-2,3′-pyrrolidine]-7-carboxamide]
IC50 [1]: > 500 nM | IC50 [2]: 100 to 500 nM

SMILES: CN1CC[C@]2(CCc3ccc(C(=O)NO)cc3C2)C1 [Compound I-19, (R)—N-hydroxy-1′-methyl-3,4-dihydro-1H-spiro[naphthalene-2,3′-pyrrolidine]-7-carboxamide]
IC50 [1]: > 500 nM | IC50 [2]: 100 to 500 nM

SMILES: O=C(NO)c1ccc2c(c1)CC1(CC2)CCN(CC2CCCCC2)C1=O (centres unmarked) [Compound I-23, 1′-(cyclohexylmethyl)-N-hydroxy-2′-oxo-3,4-dihydro-1H-spiro[naphthalene-2,3′-pyrrolidine]-7-carboxamide]
IC50 [1]: 100 to 500 nM | IC50 [2]: ≤ 100 nM

SMILES: CC(C)N1CCC2(CCc3ccc(C(=O)NO)cc3C2)C1=O (centres unmarked) [Compound I-24, N-hydroxy-1′-isopropyl-2′-oxo-3,4-dihydro-1H-spiro[naphthalene-2, 3′-pyrrolidine]-7-carboxamide]
IC50 [1]: > 500 nM | IC50 [2]: 100 to 500 nM

SMILES: O=C(NO)c1ccc2c(c1)CC1(CC2)CCN(c2ccccc2)C1=O (centres unmarked) [Compound I-26, N-hydroxy-2′-oxo-1′-phenyl-3,4-dihydro-1H-spiro[naphthalene-2,3′-pyrrolidine]-7-carboxamide]
IC50 [1]: 100 to 500 nM | IC50 [2]: ≤ 100 nM

SMILES: O=C(NO)c1ccc2c(c1)C[C@@]1(CC2)CCN(c2cccnc2)C1=O [Compound I-28, (S)—N-hydroxy-2′-oxo-1′-(pyridin-3-yl)-3,4-dihydro-1H-spiro[naphthalene-2,3′-pyrrolidine]-7-carboxamide]
IC50 [1]: 100 to 500 nM | IC50 [2]: ≤ 100 nM

SMILES: O=C(NO)c1ccc2c(c1)C[C@]1(CC2)CCN(c2cccnc2)C1=O [Compound I-29, (R)—N-hydroxy-2′-oxo-1′-(pyridin-3-yl)-3,4-dihydro-1H-spiro[naphthalene-2,3′-pyrrolidine]-7-carboxamide]
IC50 [1]: > 500 nM | IC50 [2]: ≤ 100 nM

SMILES: O=C(NO)c1ccc2c(c1)C[C@@]1(CC2)CCN(c2nc3ccccc3[nH]2)C1=O [Compound I-31, (S)-1′-(1H-benzo[d]imidazol-2-yl)-N-hydroxy-2′-oxo-3,4-dihydro-1H-spiro[naphthalene-2,3′-pyrrolidine]-7-carboxamide]
IC50 [1]: > 500 nM | IC50 [2]: ≤ 100 nM

SMILES: O=C(NO)c1ccc2c(c1)C[C@]1(CC2)CCN(c2nc3ccccc3[nH]2)C1=O [Compound I-32, (R)-1′-(1H-benzo[d]imidazol-2-yl)-N-hydroxy-2′-oxo-3,4-dihydro-1H-spiro[naphthalene-2,3′-pyrrolidine]-7-carboxamide]
IC50 [1]: > 500 nM | IC50 [2]: ≤ 100 nM
